Data: PubChem BioAssay AID1919007 (Molecular Pharmacology Branch, DTP, NCI, 2023)
pIC50: −log10 of the molar value.

Test system: A498 complex spheroids with HUVEC/MSC, growth
Test: Anticancer human tumor A498 cell line growth inhibition [AhR];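 further: seven day exposure starting three days after spheroid seeding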;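 on viability, T/C: luminescence signal used as a surrogate for viable cells; luminescence viability scaled so 100% equals DMSO vehicle wells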
Details: for pIC50: curve of first compound; for viability, T/C: stronger effect = lower value
Method in brief: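 Complex tumor spheroids co-cultured with HUVEC and human MSC stroma; AhR antagonists tested in combination with standard-of-care and investigational agents. Top concentration at or near clinical Cmax (else 10 microM), half-log dilutions; growth expressed as percent test/control.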

[1] = second compound 0.1 µM, first compound 0.0316 µM
[2] = second compound 0.1 µM, first compound 0.1 µM
[3] = second compound 0.1 µM, first compound 0.316 µM
[4] = second compound 0.1 µM, first compound 1 µM
[5] = second compound 0.1 µM, first compound 3.16 µM
[6] = second compound 0.1 µM, first compound 10 µM
[7] = second compound 0.316 µM, first compound 0.0316 µM
[8] = second compound 0.316 µM, first compound 0.1 µM
[9] = second compound 0.316 µM, first compound 0.316 µM
[10] = second compound 0.316 µM, first compound 1 µM
[11] = second compound 0.316 µM, first compound 3.16 µM
[12] = second compound 0.316 µM, first compound 10 µM
[13] = second compound 1 µM, first compound 0.0316 µM
[14] = second compound 1 µM, first compound 0.1 µM
[15] = second compound 1 µM, first compound 0.316 µM
[16] = second compound 1 µM, first compound 1 µM
[17] = second compound 1 µM, first compound 3.16 µM
[18] = second compound 1 µM, first compound 10 µM
[19] = second compound 3.16 µM, first compound 0.0316 µM
[20] = second compound 3.16 µM, first compound 0.1 µM
[21] = second compound 3.16 µM, first compound 0.316 µM
[22] = second compound 3.16 µM, first compound 1 µM
[23] = second compound 3.16 µM, first compound 3.16 µM
[24] = second compound 3.16 µM, first compound 10 µM
[25] = second compound 10 µM, first compound 0.0316 µM
[26] = second compound 10 µM, first compound 0.1 µM
[27] = second compound 10 µM, first compound 0.316 µM
[28] = second compound 10 µM, first compound 1 µM
[29] = second compound 10 µM, first compound 3.16 µM
[30] = second compound 10 µM, first compound 10 µM

SMILES	pIC50 (second compound 0.1 µM)	pIC50 (second compound 0.316 µM)	pIC50 (second compound 1 µM)	pIC50 (second compound 3.16 µM)	pIC50 (second compound 10 µM)	viability, T/C [1] [%]	viability, T/C [2] [%]	viability, T/C [3] [%]	viability, T/C [4] [%]	viability, T/C [5] [%]	viability, T/C [6] [%]	viability, T/C [7] [%]	viability, T/C [8] [%]	viability, T/C [9] [%]	viability, T/C [13] [%]	viability, T/C [14] [%]	viability, T/C [19] [%]	viability, T/C [20] [%]	viability, T/C [25] [%]	viability, T/C [26] [%]	also measured
CC1(C)CCC(CN2CCN(c3ccc(C(=O)NS(=O)(=O)c4ccc(NCC5CCOCC5)c([N+](=O)[O-])c4)c(Oc4cnc5[nH]ccc5c4)c3)CC2)=C(c2ccc(Cl)cc2)C1 + CC(CO)NC(=O)c1cc(-c2ccc(Cl)cc2)nn(-c2cnn(C)c2)c1=O	5.27	5.30	5.31	5.40	5.42	98.3	98	94.3	86.4	75.1	23.6	91.1	92.3	85.7	82.5	85.1	77.5	79.4	64.3	69.5	viability, T/C [10]: 84.7%; viability, T/C [11]: 69.7%; viability, T/C [12]: 21.6%; viability, T/C [15]: 86.4%; viability, T/C [16]: 79.5%; viability, T/C [17]: 68.8%; viability, T/C [18]: 20.3%; viability, T/C [21]: 79.4%; viability, T/C [22]: 63.3%; viability, T/C [23]: 61.2%; viability, T/C [24]: 20.6%; viability, T/C [27]: 66.1%; viability, T/C [28]: 59.4%; viability, T/C [29]: 56.8%; viability, T/C [30]: 22.4%
COc1cc(Nc2ncc3c(n2)-c2ccc(Cl)cc2C(c2c(F)cccc2OC)=NC3)ccc1C(=O)O + CC(CO)NC(=O)c1cc(-c2ccc(Cl)cc2)nn(-c2cnn(C)c2)c1=O	5.83	5.87	6.05	5.97	6.34	62.6	69.4	63.5	50.2	45.3	33.2	70	67.9	64.5	60.1	67.5	55.1	59.9	49.6	55	viability, T/C [10]: 50.7%; viability, T/C [11]: 43.3%; viability, T/C [12]: 32.3%; viability, T/C [15]: 61.1%; viability, T/C [16]: 47%; viability, T/C [17]: 41.5%; viability, T/C [18]: 33.5%; viability, T/C [21]: 59.1%; viability, T/C [22]: 47.2%; viability, T/C [23]: 42.2%; viability, T/C [24]: 30.8%; viability, T/C [27]: 53.3%; viability, T/C [28]: 44.8%; viability, T/C [29]: 37.4%; viability, T/C [30]: 34.9%
Cn1ncnc1C1c2n[nH]c(=O)c3cc(F)cc(c23)NC1c1ccc(F)cc1 (stereo not given) + CC(CO)NC(=O)c1cc(-c2ccc(Cl)cc2)nn(-c2cnn(C)c2)c1=O	< 7.00	< 7.00	< 7.00	< 7.00	< 7.00	91.4	92.4	–	–	–	–	87.6	87.8	–	93.5	91.2	77.8	79.1	68.5	67.1	viability, T/C (second compound 0.1 µM, first compound 0.000316 µM): 100%; viability, T/C (second compound 0.1 µM, first compound 0.001 µM): 102%; viability, T/C (second compound 0.1 µM, first compound 0.00316 µM): 106%; viability, T/C (second compound 0.1 µM, first compound 0.01 µM): 95.1%; viability, T/C (second compound 0.316 µM, first compound 0.000316 µM): 99.5%; viability, T/C (second compound 0.316 µM, first compound 0.001 µM): 103%; viability, T/C (second compound 0.316 µM, first compound 0.00316 µM): 101%; viability, T/C (second compound 0.316 µM, first compound 0.01 µM): 88.5%; viability, T/C (second compound 1 µM, first compound 0.000316 µM): 100%; viability, T/C (second compound 1 µM, first compound 0.001 µM): 95.7%; viability, T/C (second compound 1 µM, first compound 0.00316 µM): 103%; viability, T/C (second compound 1 µM, first compound 0.01 µM): 94.1%; viability, T/C (second compound 3.16 µM, first compound 0.000316 µM): 91%; viability, T/C (second compound 3.16 µM, first compound 0.001 µM): 94.1%; viability, T/C (second compound 3.16 µM, first compound 0.00316 µM): 92.1%; viability, T/C (second compound 3.16 µM, first compound 0.01 µM): 80.2%; viability, T/C (second compound 10 µM, first compound 0.000316 µM): 74.3%; viability, T/C (second compound 10 µM, first compound 0.001 µM): 71.7%; viability, T/C (second compound 10 µM, first compound 0.00316 µM): 75.9%; viability, T/C (second compound 10 µM, first compound 0.01 µM): 69%
NS(=O)(=O)OCC1CC(n2ccc3c(NC4CCc5ccccc54)ncnc32)CC1O (stereo not given) + CC(CO)NC(=O)c1cc(-c2ccc(Cl)cc2)nn(-c2cnn(C)c2)c1=O	6.57	6.58	6.51	6.61	6.71	94.8	86	42.4	30	22.4	17.7	90.9	81.8	42.9	92	82.4	92.5	73.6	79	64.1	viability, T/C [10]: 27.2%; viability, T/C [11]: 23.3%; viability, T/C [12]: 17.6%; viability, T/C [15]: 47.5%; viability, T/C [16]: 30.8%; viability, T/C [17]: 23.4%; viability, T/C [18]: 19.8%; viability, T/C [21]: 41.5%; viability, T/C [22]: 29.3%; viability, T/C [23]: 20.6%; viability, T/C [24]: 18.3%; viability, T/C [27]: 39.5%; viability, T/C [28]: 26%; viability, T/C [29]: 20.9%; viability, T/C [30]: 17.6%
O=C(C=Cc1cccc(S(=O)(=O)Nc2ccccc2)c1)NO + CC(CO)NC(=O)c1cc(-c2ccc(Cl)cc2)nn(-c2cnn(C)c2)c1=O	6.09	6.14	6.15	6.21	6.53	82.8	79.2	63.6	42.5	32.6	9.53	80.2	74.3	64.5	80.5	80.8	73.1	72.8	67	56.6	viability, T/C [10]: 39.4%; viability, T/C [11]: 31.9%; viability, T/C [12]: 9.41%; viability, T/C [15]: 61%; viability, T/C [16]: 42.2%; viability, T/C [17]: 28.1%; viability, T/C [18]: 9.7%; viability, T/C [21]: 58.6%; viability, T/C [22]: 39.6%; viability, T/C [23]: 28.8%; viability, T/C [24]: 6.66%; viability, T/C [27]: 53.8%; viability, T/C [28]: 33.7%; viability, T/C [29]: 25.6%; viability, T/C [30]: 6.56%
